Assay results from patent US20040147595A1, “Biofilm degrading or sloughing compositions and methods” (priority 2001, published 2004).
Where two headings read alike, the source gives them in different places.

Columns and labels:
[1] = test system: las quorum sensing system (lasB-gfp(ASV) expression); assay: PlasB-gfp(ASV) reporter in planktonic wild type P. aeruginosa PAO1; format: cell-based, Pseudomonas aeruginosa; details: for reduction in lasB(ASV) expression: wild type P. aeruginosa
Method: (§1) AHL and furanone bioassay. Strains were grown exponentially in LB or ABt medium supplemented with 0.5% glucose at 30° C., shading at 250 rpm. At an optical density of approximately 0.8. the cultures were diluted and split into subcultures in glass culture flasks. AHLs and furanone 56 were added to appropriate concentrations and the cultures were further incubated at 30° C. under vigorous shaking. Culture samples were retrieved at various time intervals and green fluorescence was measured with a fluorometer (model RF-1501, Shimadzu, Tokyo, Japan) set at an excitation wavelength of 475 nm and emission wavelength of 515 nm. Relative fluorescence was calculated as green fluorescence normalized to 1 ml culture divided by the optical density (OD600 nm.
The PlasB-gfp(ASV) reporter was inserted into the chromosome of wild type P. aeruginosa. […] The quorum size for lasB-gfp(ASV) induction corresponded to a cell density slightly above […] of 1.0, which is in agreement with other reports (Brumilk & Storey, 1992).

[2] = test system: lasB-gfp(ASV) reporter in P. aeruginosa PAO-JP2 biofilm; assay: OdDHL-mediated signalling in PAO-JP2 flowcell biofilm, lasB-gfp(ASV) reporter, CSLM; format: cell-based, Pseudomonas aeruginosa
Method: P. aeruginosa biofilms. Biofilms were grown at 30° C. in three-dimensional flow cells (Christensen et al., 1999) with individual channel dimensions of 0.3×4×40 mm supplied With ABt minimal medium supplemented with 2% LB. The flow system was assembled and prepared as described by Christensen et al. (1999). The substratum consisted of a microscope glass coverslip (Knittel 24×50 mm st1, Knittel Glaser, Braunschweig, Germany). Cultures for inoculation of the flow channels were prepared in the following way: P. aeruginosa strains were streaked on LB plates with the appropriate antibiotics and incubated for 24 h at 37° C. From each plate a single colony was used for inoculation of 10 ml ABt with 10% LB. The cultures were grown at, 30° C. for 18 h before they were diluted to an OD600 nm of 0.1 in sterile 0.9% NaCl and used for inoculation of the flow channels. Medium flow was kept at a constant rate of 3 mL/h, equivalent to a mean flow velocity of 0.7 mm/s, using a Watson-Marlow 205S peristaltic pump (Watson-Marlow, Falmouth, England). Biofilms were grown for 24 hours before being shifted to media containing AHL and furanone.
Scanning confocal laser microscopy (SCLM). Microscopic inspection and image acquisition were performed an a scanning confocal laser microscope (model TCS4D, Leica Lasertechnik GmbH, Heldelberg, Germany) equipped with a 63×/1.32-0.6 oil objective. The microscope was equipped with a motorized and programmable xy-stage, which was used for monitoring single colonies during the biofilm experiments. At the beginning of each online experiment, the microscope was programmed to track single randomly selected microcolonies; the sensitivity of photo multipliers and the laser intensity were adjusted and thereafter kept constant through out the duration of the experiments. Image scanning was carried out using the 488 nm and 568 nm lines of an Ar/Kr laser for detection of Gfp and Rfp, respectively. Visualization of captured images was performed using the IMARIS software package (Bitplane AG, Zúrich, Switzerland) running on a Silicon Graphics Indigo 2 workstation (Silicon Graphics, Mountain View, Calif. USA).
Inhibition of AHL-mediated signalling in P. aeruginosa biofilms. The lasB-gfp(ASV) reported was integrated into the chromosome of PAO-JP2 to ensure stable segregation and a constant gene dosage of the reported system. The strain was growth in flowcells for 24 hours in ABt-LB medium and a 10-15 μm thick biofilm developed. The media flow was subsequently switched to ABt-LB medium containing the appropriate AHL and furanone concentrations. The development of green fluorescence was monitored online by CSLM for 8 hours.

[3] = test system: las quorum sensing system (lasB-gfp(ASV) Plac-lasR); assay: pMHLAS lasB-gfp(ASV) reporter in E. coli MT102; format: cell-based, Escherichia coli; details: E. coli MT102 host, data not shown
Method: as §1
Initially, the lasB-gfp(ASV) translational fusion (OdDHL sensor) was thoroughly characterized with respect to its sensitivity and specificity. A culture of E. coli hosting the pMHLAS monitor plasmid was diluted and spilt into several subcultures which were then supplemented with AHLs at concentrations ranging from 0 to 1000 nM. […] When the pMHLAS based reporter system was hosted by PAO-JP2. the OdDHL concentration required for half-maximal activation of the lasB-gfp(ASV) fusion was 8 nM (data not shown). In single copy on the chromosome of PAO-JP2, the OdDHL concentration on required for half-maximal activation of lasB expression was approximately 250 nM (FIG. 2b). Green fluorescent cells were visible by epifluorescence microscopy at a minimal OdDHL concentration of 50 nM (FIG. 2c).
Effect of the furanone in a heterologous background. The direct regulation exerted by the las regulon on lasB expression is well described by numerous studies (Gambello & Iglewski, 1991: Pearson et al., 1994; Pearson et al., 1997). Regulatory complexity is added by the observation that the las quorum sensing circuit itself is subject to global regulators (Albus et al., 1997; Whiteley et al., 2000) and that lasB expression is also controlled by other regulators than LasR (Brumlik & Storey, 1992; Pesci et al., 1999; Schictman et al., 1995). It was, therefore, important to rule out that QSI effect, observed is not caused by furanone interaction with high levels of control. Since there is no AHL-based quorum sensing system present in Escherichia coli (Williams et al., 2000), this bacterium provides an unbiased and well-defined genetic background for studying the direct effects of the furanone on the P. aeruginosa las quorum sensing system. We repeated the above-described experiments using E. coli MT102 as a heterologous host for the reporter system. […] This is likely to be attributed to the increased copy number of the reporter plasmid.

P. aeruginosa PAO1 = assay: Growth (optical density) of P. aeruginosa PAO1; format: cell-based, Pseudomonas aeruginosa
Method: as §1
To determine if the furanone compound worked specifically on the las quorum sensor and not indirectly by disruption of primary metabolic functions, we followed growth as optical density of P. aeruginosa PAO1 in the presence of furanone 56. […] Further, we tested whether the furanone affected P. aeruginosa protein synthesis. The wild type P. aeruginosa PAO1 strain containing the consitutive Gfp-expression vector pMH306 was grown in the presence of furanone 56 at concentrations from 0 to 10 μ/ml. Gfp-expression (fluorescence/OD600 nm) was throughout the growth cycle unaffected by the presence of furanone compound (data not shown).

## O=C1C=C/C(=C/Br)O1 [furanone 56]
[1]; 5 μg/ml (28.5 μM) furanone
  reduction in lasB(ASV) expression: 40%
[1]; 10 μg/ml furanone
  reduction in lasB(ASV) expression: 60%
[1]; planktonic cultures of PAO1
  reduction of transcription of the lasB promoter: approximately 2 fold
[2]; 40 nM OdDHL and 2 μl/ml furanone 56, 8 hours
  induction of green fluorescence in biofilm: did not lead to induction of green fluorescence
[2]; 80 nM OdDHL and 2 μg/ml furanone 56
  induction of green fluorescence in biofilm: green fluorescence was induced
[2]; 80 nM OdDHL and 4 μg/ml furanone, data not shown
  induction of green fluorescence in biofilm: Induction of green fluorescence was established
[2]; 4 μg/ml alone, data not shown
  green fluorescence in biofilm: No green fluorescence was observed
[3]
  QSI activity / lasB promoter activity in heterologous E. coli background: repressed lasB promoter activity
[3]; listed as furanone
  QSI activity / lasB promoter activity in heterologous E. coli background: observed
P. aeruginosa PAO1
  concentrations without effect on growth: < 10 µg/mL
P. aeruginosa PAO1; PAO1, concentrations used for this study (up to 10 μg/ml)
  effect on growth: no or only little effect on growth
P. aeruginosa PAO1; listed as furanone
  concentrations without effect on growth: below 10 μg/ml
